≈ marks a conversion by molar mass, not a printed value.
Key:
[1] = test system: human renal epithelial cell line HK2; assay: Cytotoxicity testing (MTT); assay type: cell-based; conditions: ratio of IC50 against HK2 to MIC80 against C. albicans SC5314
Experimental: (§1) h (for C. albicans, C. krusei, C. tropicalis, C. parapsilosis) or 48 h (for C. neoformans, A. fumigatus). The MIC was determined based on visible growth inhibition compared with the control. All experiments were performed in duplicate.
(§2) Cytotoxicity testing. The cell lines HK2 and 16HBE were used to evaluate the cytotoxicity of 19ak, 19k and 19t. Cells in DMEM containing 10% fetal bovine serum (Gibco) were seeded in 96-well tissue culture plates at a cell density of 1 × 10^4 cells/mL and incubated for 24 h to allow adhesion. The supernatant was then replaced with fresh DMEM containing various concentrations of 19ak, 19k and 19t. The plates were subsequently incubated for an additional 48 h at 37°C with 5% CO2, followed by the addition of 10 μL of MTT solution to each well and incubation at 37°C for 4 h.
(§3) The effects of the compounds on cell proliferation were detected by measuring the absorbance at 570 nm in a microplate reader (BioTek, VT, USA). Three independent experiments were conducted. […]

[2] = test system: human bronchial epithelial cell line 16HBE; assay: Cytotoxicity testing (MTT); assay type: cell-based; conditions: ratio of IC50 against 16HBE to MIC80 against C. albicans SC5314
Experimental: as §1, §2, §3

[3] = Cytotoxicity testing (MTT); assay type: cell-based, human; conditions: human, 48 h, MTT
Experimental: as §1, §2, §3

[4] = test system: C. neoformans H99; assay: Antifungal susceptibility testing, microbroth dilution MIC; assay type: cell-based; conditions: Cryptococcus neoformans, H99; C. neoformans wild-type strain; 48 h; read-out: MIC (μg/mL) against fungi H99
Excerpt: (§4) Compound library. The thiosemicarbazone derivatives Triapine and COTI-2 were purchased from Med Chem Express (MCE). The other 87 thiosemicarbazones used in this study were previously synthesized by our collaborators (1, 2). Their structures are shown in Table 1 and Table S1 to help the reader clearly understand the relationship between structure and activity.
(§5) Strains and culture conditions. Clinically derived C. albicans isolates, including G5, F5, and Gu5, were kindly provided by Professor Joachim Morschhäuser of the University of Würzburg. Other clinical C. albicans isolates were kindly donated by Professor Qingguo Qi of Shandong University and Qianfoshan Hospital of Shandong Province Other Candida strains were obtained from Jinan Central Hospital.
(§6) The zap1 mutant and its complemented strain were kindly provided by Professor Aaron P. Mitchell of Carnegie Mellon University (3). The C. neoformans strains used in this study was kindly donated by Professor Guojian Liao of Southwest University and A. fumigatus strain used in this study was provided by Professor Ling Lu of Nanjing Normal University. […]
(§7) Antifungal susceptibility testing. To determine in vitro antifungal activities, the microbroth dilution method was carried out in RPMI1640 medium according to the guidelines of the Clinical and Laboratory Standards Institute (4, 5). The initial concentration in RPMI1640 medium was 1 × 10^3 CFU/mL for the C. albicans and C. neoformans suspensions but 1 × 10^4 CFU/mL for A. fumigatus. The range of final drug concentrations was 0.0156–64 μg/mL. The plates were incubated at35°C for 24 […]
(§8) h (for C. albicans, C. krusei, C. tropicalis, C. parapsilosis) or 48 h (for C. neoformans, A. fumigatus). The MIC was determined based on visible growth inhibition compared with the control. All experiments were performed in duplicate. […]

[5] = test system: A. fumigatus AF293; assay: as above; assay type: cell-based; conditions: Aspergillus fumigatus, AF293; standard strain of A. fumigatus; 48 h; read-out: MIC (μg/mL) against fungi AF293
Excerpt: as §4, §5, §6, §7, §8

[6] = test system: C. albicans SC5314; assay: Minimal fungicidal concentration (MFC); assay type: cell-based; conditions: Candida albicans, read-out: MFC against C. albicans SC5314
[7] = test system: human hepatocellular carcinoma cell line HepG2; assay: Cytotoxicity testing (MTT); assay type: cell-based; conditions: ratio of IC50 against HepG2 to MIC80 against C. albicans SC5314
[8] = Cytotoxicity testing (MTT); assay type: cell-based, human; conditions: human, HepG2 cells (hepatocellular carcinoma cell line)
[9] = test system: C. albicans G5; assay: microbe, parasite or virus in culture; assay type: cell-based; conditions: Candida albicans, G5
Excerpt: as §4, §5
as §6, with “University. Before in vitro and in vivo experiments, all C. albicans strains were grown on YPD agar plates. After culturing at 30°C for 24 h, colonies of each strain were cultured in liquid YPD medium at 30°C with continuous shaking” for “University.”
as §7, §8

[10] = test system: C. albicans Gu5; assay: microbe, parasite or virus in culture; assay type: cell-based; conditions: Candida albicans, GU5
Excerpt: as §4, §5
as §6, with “University. Before in vitro and in vivo experiments, all C. albicans strains were grown on YPD agar plates. After culturing at 30°C for 24 h, colonies of each strain were cultured in liquid YPD medium at 30°C with continuous shaking” for “University.”
as §7, §8

[11] = test system: C. albicans 28A; assay: Microbroth dilution MIC80; assay type: cell-based; conditions: Candida albicans, 28A
Excerpt: as §4, §5
as §6, with “University. Before in vitro and in vivo experiments, all C. albicans strains were grown on YPD agar plates. After culturing at 30°C for 24 h, colonies of each strain were cultured in liquid YPD medium at 30°C with continuous shaking” for “University.”
as §7, §8

[12] = test system: C. albicans 11f; assay: Microbroth dilution MIC80; assay type: cell-based; conditions: Candida albicans, 11F
Excerpt: as §4, §5
as §6, with “University. Before in vitro and in vivo experiments, all C. albicans strains were grown on YPD agar plates. After culturing at 30°C for 24 h, colonies of each strain were cultured in liquid YPD medium at 30°C with continuous shaking” for “University.”
as §7, §8

[13] = test system: C. albicans 28I; assay: Microbroth dilution MIC80; assay type: cell-based; conditions: Candida albicans, 28I
Excerpt: as §4, §5
as §6, with “University. Before in vitro and in vivo experiments, all C. albicans strains were grown on YPD agar plates. After culturing at 30°C for 24 h, colonies of each strain were cultured in liquid YPD medium at 30°C with continuous shaking” for “University.”
as §7, §8

[14] = test system: C. albicans F5; assay: Microbroth dilution MIC80; assay type: cell-based; conditions: Candida albicans, F5
Excerpt: as §4, §5
as §6, with “University. Before in vitro and in vivo experiments, all C. albicans strains were grown on YPD agar plates. After culturing at 30°C for 24 h, colonies of each strain were cultured in liquid YPD medium at 30°C with continuous shaking” for “University.”
as §7, §8

Q: Which results are given for S=C(N/N=C/c1ccc(Br)cn1)Nc1ccc(Br)cc1 [Compound 19k]?
A: Selectivity index HK2 [1]: 63.88; Selectivity index 16HBE [2]: 36.43; IC50 at 48 h ([3]; 16HBE cells (bronchial epithelial cell line), 16HBE cells): 36.4 µg/mL (≈ 88 µM); IC50 at 48 h ([3]; HK2 cells (renal epithelial cell line), HK2 cells): 63.9 µg/mL (≈ 154 µM); MIC [4]: 0.031 µg/mL (≈ 0.0749 µM); MIC [5]: 8 µg/mL (≈ 19.3 µM); MFC [6]: > 64 µg/mL; Selectivity index HepG2 [7]: 28; IC50 [8]: 28 µg/mL (≈ 67.6 µM); MIC80 [9]: 4 µg/mL (≈ 9.66 µM); MIC80 [10]: 2 µg/mL (≈ 4.83 µM); MIC80 [11]: 2 µg/mL (≈ 4.83 µM); MIC80 [12]: 2 µg/mL (≈ 4.83 µM); MIC80 [13]: 1 µg/mL (≈ 2.41 µM); MIC80 [14]: 1 µg/mL (≈ 2.41 µM)

Reference: publication PMC9241695, “Selective Metal Chelation by a Thiosemicarbazone Derivative Interferes with Mitochondrial Respiration and Ribosome Biogenesis in Candida albicans” (Microbiology Spectrum, 2022)
